Experimental data from ChEMBL document CHEMBL5126590 (Bioorg Med Chem, 2022).
Active and inactive are the calls of the source. The calls are words filed in the database; no cut-off is given here.

Assays:
[1] = biological target: T1, Interstitial collagenase (Homo sapiens) (UniProt P03956); test: Inhibition of MMP-1 (unknown origin) using FRET substrate preincubated for 5 mins followed by substrate addition and measured after 30 mins by fluorescence assay; details: dose 25-100 µM, time 35.0 min, DDE = dose-dependent effect
T1 sequence (whole entry): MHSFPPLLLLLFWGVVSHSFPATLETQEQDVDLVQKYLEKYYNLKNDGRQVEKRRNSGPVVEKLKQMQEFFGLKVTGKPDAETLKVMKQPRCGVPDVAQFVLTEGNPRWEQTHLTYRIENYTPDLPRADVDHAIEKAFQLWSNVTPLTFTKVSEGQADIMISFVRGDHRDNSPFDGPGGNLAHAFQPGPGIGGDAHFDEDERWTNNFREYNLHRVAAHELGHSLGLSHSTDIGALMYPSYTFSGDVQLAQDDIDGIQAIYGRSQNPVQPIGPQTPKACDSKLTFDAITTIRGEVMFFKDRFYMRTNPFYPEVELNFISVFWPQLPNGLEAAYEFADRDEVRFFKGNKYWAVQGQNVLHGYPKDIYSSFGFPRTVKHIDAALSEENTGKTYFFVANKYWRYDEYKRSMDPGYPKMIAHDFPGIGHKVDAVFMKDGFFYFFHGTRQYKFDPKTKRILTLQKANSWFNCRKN

[2] = biological target: T1, Interstitial collagenase (Homo sapiens); test: (§1) Binding affinity to human MMP-1 catalytic domain (100 to 269 residues) expressed in Escherichia coli BL21 Star (DE3) by SPR analysis; details: DDE = dose-dependent effect
Interstitial collagenase = biological target: T2, Interstitial collagenase (Homo sapiens, UniProt P03956); test: as §1
T2 sequence (P03956 whole entry): T1 sequence (whole entry)

[3] = biological target: T1, Interstitial collagenase (Homo sapiens); test: Binding affinity to human 15N-labelled MMP-1 catalytic domain (100 to 269 residues) expressed in Escherichia coli BL21 Star (DE3) assessed as chemical shift perturbation at F97 residue at 500 uM by 1H-15N HSQC spectra analysis
[4] = biological target: T1, Interstitial collagenase (Homo sapiens); test: Binding affinity to human 15N-labelled MMP-1 catalytic domain (100 to 269 residues) expressed in Escherichia coli BL21 Star (DE3) assessed as chemical shift perturbation at E99 residue at 500 uM by 1H-15N HSQC spectra analysis
B16-F10 [5] = test: Binding affinity to MMP-1 in mouse B16-F10 cell lysate by pull down assay; assay type: subcellular
[6] = biological target: Actin, cytoplasmic 1 (Mus musculus) (UniProt P60710); test: Binding affinity to beta-actin in mouse B16-F10 cell lysate by pull down assay; assay type: subcellular
[7] = biological target: Heat shock cognate 71 kDa protein (Mus musculus) (UniProt P63017); test: Binding affinity to HSP73 in mouse B16-F10 cell lysate by pull down assay; assay type: subcellular
Chain of Heat shock cognate 71 kDa protein (Mus musculus) (P63017 whole entry): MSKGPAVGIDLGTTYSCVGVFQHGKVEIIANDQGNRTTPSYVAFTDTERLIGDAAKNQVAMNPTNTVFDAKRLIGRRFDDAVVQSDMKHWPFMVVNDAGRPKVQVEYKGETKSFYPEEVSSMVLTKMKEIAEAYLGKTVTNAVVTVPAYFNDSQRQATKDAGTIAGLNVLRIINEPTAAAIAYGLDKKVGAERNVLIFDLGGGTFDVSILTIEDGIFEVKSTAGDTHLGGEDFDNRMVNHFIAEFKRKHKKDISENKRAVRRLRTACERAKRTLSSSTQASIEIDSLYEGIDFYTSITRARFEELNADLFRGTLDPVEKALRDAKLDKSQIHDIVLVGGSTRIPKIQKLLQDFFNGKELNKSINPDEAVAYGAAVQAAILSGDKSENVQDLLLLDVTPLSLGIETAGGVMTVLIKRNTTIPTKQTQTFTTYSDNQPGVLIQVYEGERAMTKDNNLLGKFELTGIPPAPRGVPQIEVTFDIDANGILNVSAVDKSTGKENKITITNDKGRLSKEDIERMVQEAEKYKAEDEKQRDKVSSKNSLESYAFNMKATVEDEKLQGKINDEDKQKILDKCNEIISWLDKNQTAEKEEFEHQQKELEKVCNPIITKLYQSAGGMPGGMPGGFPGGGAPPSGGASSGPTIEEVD

[8] = biological target: Mitogen-activated protein kinase kinase kinase 11 (Mus musculus) (UniProt Q80XI6); test: Binding affinity to MLK3 in mouse B16-F10 cell lysate by pull down assay; assay type: subcellular
Chain of Mitogen-activated protein kinase kinase kinase 11 (Mus musculus) (Q80XI6 whole entry, looked up): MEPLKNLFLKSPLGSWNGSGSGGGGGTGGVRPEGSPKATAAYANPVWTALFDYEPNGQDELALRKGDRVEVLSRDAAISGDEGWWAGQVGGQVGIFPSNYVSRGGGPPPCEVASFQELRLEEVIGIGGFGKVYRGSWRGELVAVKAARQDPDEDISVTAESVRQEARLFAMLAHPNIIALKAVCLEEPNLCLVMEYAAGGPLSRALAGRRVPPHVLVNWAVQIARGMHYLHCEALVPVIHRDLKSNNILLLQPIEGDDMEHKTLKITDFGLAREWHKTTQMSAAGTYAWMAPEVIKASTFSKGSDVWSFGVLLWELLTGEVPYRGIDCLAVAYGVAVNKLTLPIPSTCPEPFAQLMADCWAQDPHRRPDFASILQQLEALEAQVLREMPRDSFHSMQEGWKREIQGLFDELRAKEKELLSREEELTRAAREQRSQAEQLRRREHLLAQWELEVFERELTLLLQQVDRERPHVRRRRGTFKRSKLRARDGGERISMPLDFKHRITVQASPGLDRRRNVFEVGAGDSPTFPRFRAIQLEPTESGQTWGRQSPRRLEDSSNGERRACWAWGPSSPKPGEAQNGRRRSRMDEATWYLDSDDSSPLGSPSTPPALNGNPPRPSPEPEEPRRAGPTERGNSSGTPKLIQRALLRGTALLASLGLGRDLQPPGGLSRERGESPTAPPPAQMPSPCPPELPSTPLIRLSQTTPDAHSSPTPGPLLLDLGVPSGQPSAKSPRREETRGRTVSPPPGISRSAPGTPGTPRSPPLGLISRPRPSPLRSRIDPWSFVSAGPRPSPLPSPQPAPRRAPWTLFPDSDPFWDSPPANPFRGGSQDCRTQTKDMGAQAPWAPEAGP

B16-F10 [9] = test: Binding affinity to MMP-1 in mouse B16-F10 cell lysate by Western blot analysis; assay type: subcellular
[10] = biological target: Actin, cytoplasmic 1 (Mus musculus) (UniProt P60710); test: Binding affinity to beta-actin in mouse B16-F10 cell lysate by Western blot analysis; assay type: subcellular
[11] = biological target: Heat shock cognate 71 kDa protein (Mus musculus) (UniProt P63017); test: Binding affinity to HSP73 in mouse B16-F10 cell lysate by Western blot analysis; assay type: subcellular

SMILES	inhibition [1]	Activity [2]	Kd (Interstitial collagenase) [µM]	Activity [3] [ppm]	Activity [4] [ppm]	Activity (B16-F10 [5])	Activity [6]	Activity [7]	Activity [8]	Activity (B16-F10 [9])	Activity [10]	Activity [11]
O=c1c(O)c(-c2ccc(O)c(O)c2)oc2cc(O)cc(O)c12	Dde	Dde										
COc1c(-c2ccc(O)c(O)c2)oc2cc(O)cc(O)c2c1=O [3-O-METHYLQUERCETIN]	Dde	Dde	21.7	0.05	> 0.03	Active	Active	Active	Active	Active	Active	Active
